Measurements reported in patent publication US20230270148A1, “BITTER BLOCKERS AND RELATED METHODS OF USE” (Conagen Inc., priority 2020, published 2023).

Columns and labels:
Assay type in all cases: in vivo
[1] = tested on: melted dark chocolate pieces with 100% dark cacao; assay: Sensory evaluation: bitterness reduction of dark chocolate pieces; details: dosage 50 or 100 ppm per sample
Experimental: (§1) The bitterness blocker candidates listed in Table 1 were prepared into a 1% sample solution with propylene glycol and heated to ensure complete solubilization. […] Individually, the respective sample solution was added to melted dark chocolate pieces with 100% dark cacao. A trained sensory evaluator was asked to estimate the perceived bitterness reduction against the control, as well as to provide comments on how the addition of the individual sample solution modulated the taste and mouth feel profile of the resulting melted dark chocolate pieces.

[2] = tested on: peach-flavored energy drink (caffeine, B vitamins); assay: Sensory evaluation: bitterness reduction of a peach-flavored energy drink; details: caffeine about 710 mg/l, dosage (ppm) per sample (20 to 50-100 ppm)
Experimental: (§2) The bitterness blocker candidates listed in Table 1 were prepared into a 1% sample solution with propylene glycol and heated to ensure complete solubilization. […] A trained sensory evaluator was asked to estimate the perceived bitterness reduction against the control, as well as to provide comments on how the addition of the individual sample solution modulated the taste and mouth feel profile of the resulting peach-flavored energy drink.

[3] = tested on: cough syrup ROBITUSSIN DM (dextromethorphan HBr and guaifenesin); assay: Sensory evaluation: bitterness reduction of cough syrup ROBITUSSIN DM; details: dosage 50 or 100 ppm per sample
Experimental: as §1, with “a cough syrup sold under the trade name ROBITUSSIN® DM. The bitter-tasting agents contained in the cough syrup were dextromethorphan HBr USP 20 mg and guaifenesin USP 400 mg (as measured for each 20 ml serving, or 21000 mg/l of bitter tastants in total).” for “melted dark chocolate pieces with 100% dark cacao.”, “cough syrup.” for “melted dark chocolate pieces.”

caffeine in water = assay: Two-alternative forced choice (2AFC) difference test
Experimental: The bitter blocker candidates BB09, BB11, and BB13 were subject to a two-alternative forced choice (2AFC) difference test wherein panelists were presented Control Caffeine solutions and Test solutions containing caffeine and one of three bitterness blocker candidates (BB09, BB 11, or BB13). Panelists were asked to evaluate the two samples and answer the question, “which one is more hitter?”
BB09 and BB11 were tested first. Three ounces of control (caffeine in water), BB09 in caffeine water, and BB11 in caffeine water were presented at room temperature in separate plastic souffle cups labeled with 3-digit codes. Ten sensory trained panelists evaluated each sample in three repetitions with a 10 minute break between repetitions. Panelists then completed the 2AFC. Data was collected on EveQuestion and analyzed on XLSTAT. Testing was conducted at Sensations Research according to FEMA guidelines.
BB13 was tested separately. Two ounces of control (caffeine in water), BB13 in caffeine water were presented at room temperature in separate plastic souffle cups labeled with 3-digit codes. Fifteen participants evaluated each sample in two repetitions with a 10 minute break between repetitions for a total of thirty evaluations as per the FEMA guidelines. Panelists then completed the 2AFC to identify the more bitter sample. Data was collected and analyzed on Compusense.

dark roast coffee = assay: Sensory evaluation: bitterness reduction of dark roast coffee; details: dosage 50 or 100 ppm per sample
Experimental: as §2, with “dark roast coffee.” for “peach-flavored energy drink.”

[4] = tested on: full spectrum CBD hemp oil nanoemulsion; assay: Sensory evaluation: bitterness reduction of full spectrum CBD hemp oil; details: dosage 50 or 100 ppm per sample
Experimental: as §2, with “solubilization. […] A full spectrum CBD hemp oil was emulsified into a water-soluble nanoemulsion first, to which was added the respective sample solution.” for “solubilization.”, “oil nanoemulsion.” for “peach-flavored energy drink.”

[5] = tested on: cough syrup DELSYM (dextromethorphan HBr); assay: Sensory evaluation: bitterness reduction of cough syrup DELSYM; details: dosage 50 or 100 ppm per sample
Experimental: as §1, with “a cough syrup sold under the trade name DELSYM®. The bitter-tasting agent contained in the cough syrup were dextromethorphan HBr USP 30 mg (as measured for each 5 ml teaspoon, i.e., 6000 mg/l of dextromethorphan).” for “melted dark chocolate pieces with 100% dark cacao.”, “cough syrup.” for “melted dark chocolate pieces.”

THC nanoemulsion = assay: Sensory evaluation: bitterness reduction of THC; details: dosage 50 or 100 ppm per sample
Experimental: The bitterness blocker candidates listed in Table 1 were prepared into a 1% sample solution with propylene glycol and heated to ensure complete solubilization. […] THC was first emulsified into a water-soluble nanoemulsion (10 mg THC per serving), to which was added the respective sample solution. A trained sensory evaluator was asked to estimate the perceived bitterness reduction against the control, as well as to provide comments on how the addition of the individual sample solution modulated the taste and mouth feel profile of the resulting nanoemulsion.

0.25% caffeine solution = assay: Sensory evaluation: bitterness reduction of a caffeine solution; details: one trained sensory evaluator, vs control, dosage (ppm) per sample (20 to 50-100 ppm)
Experimental: as §2, with “The bitter” for “The bitterness”, “glycol (i.e., 1 g of bitter blocker per 100 ml of propylene glycol)” for “glycol”, “resulting caffeine solution.” for “resulting peach-flavored energy drink.”

## COc1cc([C@@H]2CC(=O)c3c(O)cc(O)cc3O2)ccc1O[C@@H]1O[C@H](CO)[C@@H](O)[C@H](O)[C@H]1O [BB11, Homoeriodictyol 4′-O-glucoside]
[1]
  Comments: Good bitterness reduction but
  Estimated % bitterness reduction: 60%
[2]
  Estimated % bitterness reduction: 80%
[3]; 21000 mg/l of bitter tastants
  Estimated % bitterness reduction: 60%
[3]
  Comments: Less bitter, smoother, more
Caffeine in water; 2AFC, 90% confidence level, which sample is more bitter
  Significant?: Yes,
Caffeine in water; of 30 responses (10 panelists, 3 evaluations), control caffeine in water vs variant in caffeine water
  # Selected Variant (which is more bitter?): 10
Dark roast coffee; caffeine about 740 mg/l
  Estimated % bitterness reduction: 80%
Dark roast coffee
  Comments: Nice upfront bitterness reduction
[4]
  Comments: Nice upfront bitterness reduction
  Estimated % bitterness reduction: 60%
[5]; 6000 mg/l of dextromethorphan
  Estimated % bitterness reduction: 60%
[5]
  Comments: Less bitter, smoother, more
THC nanoemulsion; THC nanoemulsion (10 mg THC per serving)
  Estimated % bitterness reduction: 60%
THC nanoemulsion; THC nanoemulsion
  Comments: Nice upfront bitterness reduction
0.25% caffeine solution
  Estimated % bitterness reduction: 60-80% ^
